Consider 13 molecules from PubChem BioAssay (NCI).

Among the test systems are A498 renal; NCI/ADR-RES ovarian; MALME-3M melanoma; MDA-MB-435; HOP-62 NSCLC; NCI-H226 lung; SK-MEL-2 melanoma; CCRF-CEM leukemia; UACC-62 melanoma; SNB-75 CNS.
Holding throughout (assay): inhibition of tumour cell growth, NCI panel, 48 h

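Method: 48-hour compound exposure of cells in 96-well plates, five concentrations, linear interpolation of endpoints. GI50 is the concentration that inhibits growth by half. Definition used: TGI = concentration required for complete inhibition of growth.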 A value given as a limit tells only on which side of the number the result lay.

On to `N=C(N)C(N=Nc1ccccc1)C(=N)N` (stereo not drawn), for which the TGI is over 100 µM in the assay with A498 renal; over 100 µM with NCI/ADR-RES ovarian; over 100 µM with MALME-3M melanoma; 42.7 µM with MDA-MB-435; over 100 µM in the assay on HOP-62 NSCLC; 73.8 µM with NCI-H226 lung. In addition, the TGI in the assay on SK-MEL-2 melanoma is 91.9 µM; in the assay on CCRF-CEM leukemia, 40.6 µM; with UACC-62 melanoma, over 100 µM.
For `CN1CCN(CCCOc2ccc3ncnc(Nc4ccc(Oc5cccc(C(F)(F)F)c5)c(Cl)c4)c3c2)CC1`, the GI50 in the assay with A498 renal is 1420 nM; in the assay on NCI/ADR-RES ovarian, 2400 nM; with MALME-3M melanoma, 1500 nM; in the assay on SNB-75 CNS, 1150 nM; in the assay with MDA-MB-435, 1530 nM; in the assay on NCI-H226 lung, 21 µM. The GI50 in the assay on SK-MEL-2 melanoma is 1860 nM; with CCRF-CEM leukemia, 2320 nM. Also, the TGI in the assay on A498 renal came to 3.23 µM; with NCI/ADR-RES ovarian it was 8.62 µM; in the assay on MALME-3M melanoma, 2.89 µM; in the assay with SNB-75 CNS, 3.13 µM; in the assay with MDA-MB-435, 3.09 µM; with NCI-H226 lung, 52 µM. The results for the TGI in the assay with SK-MEL-2 melanoma and with CCRF-CEM leukemia were 3.72 µM and 7.46 µM, respectively.
Take `C=C1C(C2(C)C=CC(=O)OC3(C)COC(=O)CC32)C(OC=O)C(OC(=O)C(O)C(C)CC)C2(C)C(c3ccoc3)CC(OC(C)=O)C12O` (stereo not drawn): the TGI in the assay with A498 renal, in the assay with NCI/ADR-RES ovarian, in the assay with SNB-75 CNS, in the assay on MDA-MB-435, in the assay on HOP-62 NSCLC and in the assay with NCI-H226 lung was over 100 µM each time. Also, the TGI with SK-MEL-2 melanoma, in the assay on CCRF-CEM leukemia and in the assay on UACC-62 melanoma was over 100 µM in each case.
Turning to `CC(=O)OCCC[C@@H]1C(=C(C)C)CCC2[C@@]1(C)CC[C@@]1(C)C[C@](C)(CCC=C(C)C)CC[C@]21C` (stereo partly drawn), the TGI in the assay with A498 renal, in the assay with NCI/ADR-RES ovarian, in the assay with MALME-3M melanoma, with SNB-75 CNS, with MDA-MB-435 and in the assay with HOP-62 NSCLC was over 100 µM each time. Also, the TGI in the assay on NCI-H226 lung, in the assay on CCRF-CEM leukemia and in the assay with UACC-62 melanoma was over 100 µM throughout.
Regarding `O=C1CC(n2cccc2)c2cc(Br)sc21` (stereo not drawn), the TGI with A498 renal, in the assay on NCI/ADR-RES ovarian, with MALME-3M melanoma, in the assay with SNB-75 CNS, with MDA-MB-435 and in the assay on HOP-62 NSCLC was over 100 µM throughout. For the same molecule, the TGI in the assay with NCI-H226 lung is over 100 µM; in the assay with SK-MEL-2 melanoma, over 100 µM; in the assay on CCRF-CEM leukemia, 60 µM; with UACC-62 melanoma, over 100 µM.
Turning to `S=C(NCCCCCCNC(=S)Nc1c2ccccc2nc2ccccc12)Nc1c2ccccc2nc2ccccc12`, the TGI in the assay with A498 renal was over 100 µM; in the assay on NCI/ADR-RES ovarian, over 100 µM; with MALME-3M melanoma, over 100 µM; with SNB-75 CNS it was over 100 µM; in the assay with HOP-62 NSCLC, over 100 µM; in the assay with NCI-H226 lung, over 30.1 µM. For the same molecule, the TGI in the assay with SK-MEL-2 melanoma, in the assay with CCRF-CEM leukemia and with UACC-62 melanoma was over 100 µM each time.
In the case of `CCCCC1Cc2cc(OC)ccc2-c2nc3cc(OC)ccc3n21` (stereo not drawn) (tested in a mixture with another compound), the TGI amounted to 26.4 µM in the assay on NCI/ADR-RES ovarian; 34.9 µM in the assay on MALME-3M melanoma; 26.3 µM in the assay with MDA-MB-435; 29.2 µM in the assay with HOP-62 NSCLC; 28.1 µM in the assay with NCI-H226 lung; 34.1 µM in the assay on CCRF-CEM leukemia. The same molecule gave a TGI with UACC-62 melanoma of 25.5 µM.
On to `CCN(CC)/C(=C\Cl)Nc1ccccn1`, for which the TGI with A498 renal, with MALME-3M melanoma, with SNB-75 CNS, in the assay on HOP-62 NSCLC, in the assay with NCI-H226 lung and in the assay on SK-MEL-2 melanoma was over 100 µM in each case. In addition, the TGI with CCRF-CEM leukemia and with UACC-62 melanoma was over 100 µM each time.
As to `C[N+]1(C)C2CCC1CC(OC(=O)C(CO)c1ccccc1)C2` (stereo not drawn), the TGI in the assay on A498 renal, in the assay on NCI/ADR-RES ovarian, in the assay with MALME-3M melanoma, with SNB-75 CNS, in the assay on MDA-MB-435 and in the assay on HOP-62 NSCLC was over 100 µM in each case. Also, the TGI with NCI-H226 lung, with SK-MEL-2 melanoma, in the assay with CCRF-CEM leukemia and in the assay with UACC-62 melanoma was over 100 µM each time.
With `Cc1c2c(cc3c1[nH]c1ccccc13)C(c1ccc(F)cc1)=NCC2`, the TGI was 4.73 µM with A498 renal; 2.36 µM in the assay with NCI/ADR-RES ovarian; 4.91 µM in the assay on MALME-3M melanoma; 4.39 µM in the assay on SNB-75 CNS; 6.54 µM in the assay on HOP-62 NSCLC; 4.64 µM with NCI-H226 lung. The TGI in the assay with SK-MEL-2 melanoma worked out at 3.28 µM; in the assay on CCRF-CEM leukemia, 7.2 µM; with UACC-62 melanoma, 2.77 µM.
Turning to `NC(=Nc1ccc(Cl)c(Cl)c1)c1ccccc1N`, the TGI in the assay with A498 renal was 55.1 µM; in the assay on NCI/ADR-RES ovarian, 95.5 µM; with MALME-3M melanoma, 45.9 µM; with SNB-75 CNS it was 75.7 µM; with MDA-MB-435 it was 42.2 µM; in the assay with HOP-62 NSCLC, over 100 µM. Further, the TGI is over 100 µM with NCI-H226 lung, 86.8 µM in the assay with SK-MEL-2 melanoma, over 100 µM in the assay on CCRF-CEM leukemia and over 100 µM with UACC-62 melanoma.
`OC1C=C2C3CN(Cc4cc5c(cc43)OCO5)[C@H]2C[C@@H]1O` (stereo partly drawn): the TGI with A498 renal was 39.9 µM; with NCI/ADR-RES ovarian, 75.6 µM; in the assay with MALME-3M melanoma it was over 100 µM; in the assay on SNB-75 CNS it was 4.56 µM; in the assay on MDA-MB-435, 24.7 µM; in the assay on HOP-62 NSCLC it was over 100 µM. The TGI in the assay on NCI-H226 lung is over 100 µM; with SK-MEL-2 melanoma, 11.9 µM; in the assay with CCRF-CEM leukemia, 7.04 µM; in the assay with UACC-62 melanoma, 68.4 µM.
For `O=C1OC(c2ccccc2)=N/C1=C/c1cccs1`, the TGI with NCI/ADR-RES ovarian was 83.7 µM; with SNB-75 CNS it was over 100 µM; with MDA-MB-435, over 100 µM; with HOP-62 NSCLC, over 100 µM; in the assay on NCI-H226 lung, over 100 µM; in the assay on SK-MEL-2 melanoma, over 100 µM. In addition, the TGI in the assay on CCRF-CEM leukemia was determined as 75.1 µM.
